Patent publication US20120010075A1 (priority 2009, published 2012)
Like-named read-outs stand apart in the source and are kept apart here.

Experiments:
[1] = system: Leptosphaeria nodorum (LEPTNO); assay: Isolated metal-hydrazone complexes versus parent hydrazones, in vitro, Leptosphaeria nodorum (Example 31, Table 7); assay type: cell-based; conditions: Parastagonospora nodorum; 0.1 μg/mL; copper-minus medium; 72 h
[2] = system: Leptosphaeria nodorum (glume blotch of wheat); assay: Cu-hydrazone complexes versus parent hydrazones against glume blotch of wheat (Example 32, Table 8); assay type: in vivo, Leptosphaeria nodorum on wheat (cultivar Yuma); conditions: Parastagonospora nodorum, 200 ppm spray, inoculated after 24 h
Phytophthora infestans [3] = assay type: in vivo, Phytophthora infestans on tomato; conditions: applied 24 h before inoculation, assessed 7 days after inoculation
[4] = system: Leptosphaeria nodorum (LEPTNO); assay: In vitro fungitoxicity of hydrazones with and without copper towards Leptosphaeria nodorum (Example 26); assay type: cell-based; conditions: 72 h at 25° C.; for inhibition of growth at 0.05 µg/mL: Parastagonospora nodorum, 72 h, copper-minus medium, read-out: LEPTNO % Inhn. Minus Copper Observed
Ustilago maydis = assay: In vitro fungitoxicity of hydrazones with and without copper towards Ustilago maydis (Example 29, Table 4); assay type: cell-based; conditions: 1 μg/mL, 48 h; for % Inhn. Plus copper Observed: copper-plus medium (CuCl2, 10 μM); for inhibition of growth at 1 µg/mL: Mycosarcoma maydis, copper-minus medium, read-out: % Inhn. Minus copper Observed
Phytophthora capsici = assay: In vitro fungitoxicity of hydrazones with and without copper towards Phytophthora capsici (Example 28, Table 3); assay type: cell-based; conditions: 0.050 μg/mL, 48 h; for % Inhn Plus copper Observed: copper-plus AS medium (CuCl2, 50 μM); for inhibition of growth at 0.05 µg/mL: Phytophthora capsici, copper-minus AS medium, read-out: % Inhn Minus copper Observed
[5] = system: Septoria tritici isolate USA-184; assay: In vitro fungitoxicity of hydrazones with and without copper towards Septoria tritici (Example 30, Table 5); assay type: cell-based; conditions: Zymoseptoria tritici, 0.05 μg/mL
[6] = system: Colletotrichum lagenarium; assay: Compound 16 and copper materials against cucumber anthracnose (Example 37, Tables 21-24); assay type: in vivo, Colletotrichum lagenarium on cucumber (Bush Pickle)
Alternaria solani = assay: Compound 16 and copper materials against tomato early blight (Example 37, Tables 17-20); assay type: in vivo, Alternaria solani on tomato (Outdoor Girl)
Phytophthora infestans [7] = assay type: in vivo, Phytophthora infestans on tomato (Outdoor Girl)
[8] = hydrazone 50 ppm + 50 μM CuCl2.2H2O, tomato
[9] = compound 0.05 μg/mL, copper-plus medium (CuCl2.2H2O)
[10] = Colby formula, CuCl2, read-out: % Inhibition Plus copper Predicted
[11] = copper-minus medium, 90 h, read-out: % Inhibition Minus copper Observed
[12] = copper-plus medium CuCl2, 90 h, read-out: % Inhibition Plus copper Observed
[13] = hydrazone 50 ppm with 50 μM CuCl2.2H2O, tomato late blight
[14] = test compound Concn. 0.05 μg/mL
[15] = copper-plus medium (CuCl2 10 μM), test compound Concn. 0.05 μg/mL

SMILES	inhibition at 0.1 µg/mL [1]	TLB % Control (Phytophthora infestans [3]; [8])	inhibition of growth at 0.05 µg/mL ([4]; compound 0.05 μg/mL)	LEPTNO % Inhn. Plus Copper Observed [4, 9]	TLB % Control (Phytophthora infestans [3]; [13])	melting point	inhibition of growth at 0.05 µg/mL [4, 14]	LEPTNO % Inhn. Plus Copper Observed [4, 15]	also measured
Cc1ccccc1C(=O)N/N=C/c1cc(Cl)cc(Cl)c1O [Example 77]	10.6%	55.5%	7.6%	96.1%	–	–	–	–	pest or weed control at 200 ppm [2]: 0%
O=C(N/N=C/c1cc(Cl)cc(Cl)c1O)c1ccc([N+](=O)[O-])cc1 [Example 76]	92.8%	89.8%	0%	97.0%	–	–	–	–	pest or weed control at 200 ppm [2]: 0%
O=C(N/N=C/c1cc(Cl)cc(Cl)c1O)c1cccc(Cl)c1 [Example 70]	29.4%	93.1%	19.6%	98.2%	–	–	–	–	pest or weed control at 200 ppm [2]: 0%
O=C(N/N=C/c1cc(Cl)ccc1O)c1ccccc1 [Example 20]	14.7%	96.5%	2.8%	96.5%	–	–	–	–	% Inhn. Plus copper Observed (Ustilago maydis): 91.0%; inhibition of growth at 1 µg/mL (Ustilago maydis): 1.2%; % Inhn Plus copper Observed (Phytophthora capsici): 90.4%; inhibition of growth at 0.05 µg/mL (Phytophthora capsici): 2.1%; inhibition at 0.05 µg/mL [5, 10]: 0%; inhibition at 0.05 µg/mL [5, 11]: 0%; inhibition at 0.05 µg/mL [5, 12]: 95.3%
O=C(N/N=C/c1cc(C(F)(F)F)cc(C(F)(F)F)c1O)c1ccc(Cl)cc1 [Example 337]	39.9%	–	–	–	97.0%	233 to 236 °C	22.4%	98.0%	% Inhn. Plus copper Observed (Ustilago maydis): 97.8%; inhibition of growth at 1 µg/mL (Ustilago maydis): 22%; % Inhn Plus copper Observed (Phytophthora capsici): 42.1%; inhibition of growth at 0.05 µg/mL (Phytophthora capsici): 4.7%; inhibition at 0.05 µg/mL [5, 10]: 46.8%; inhibition at 0.05 µg/mL [5, 11]: 46.8%; inhibition at 0.05 µg/mL [5, 12]: 97.1%
C/C(=N\NC(=O)c1ccccc1)c1cc(Cl)cc(Cl)c1O [Example 60]	23.3%	85.0%	7.3%	97.5%	–	–	–	–	% Inhn. Plus copper Observed (Ustilago maydis): 93.5%; inhibition of growth at 1 µg/mL (Ustilago maydis): 0%; % Inhn Plus copper Observed (Phytophthora capsici): 76.4%; inhibition of growth at 0.05 µg/mL (Phytophthora capsici): 4.1%; inhibition at 0.05 µg/mL [5, 10]: 20.6%; inhibition at 0.05 µg/mL [5, 11]: 20.6%; inhibition at 0.05 µg/mL [5, 12]: 94.8%
O.O.[Cl][Cu][Cl] [CuCl2•2H2O]	–	–	–	–	–	–	–	–	% Control of Cucumber Anthracnose ([6]; copper material 10 μM alone): 9.6%; % Control of Cucumber Anthracnose ([6]; copper material 50 μM alone): 1.4%; % Control of Cucumber Anthracnose ([6]; copper material 200 μM alone): 37.2%; % Control of Cucumber Anthracnose ([6]; copper material 400 μM alone): 76.2%; % Control of Cucumber Anthracnose ([6]; copper material 800 μM alone): 90.0%; % Control of Tomato Early Blight (Alternaria solani; copper material 10 μM alone): 0.0%; % Control of Tomato Early Blight (Alternaria solani; copper material 50 μM alone): 0.0%; % Control of Tomato Early Blight (Alternaria solani; copper material 200 μM alone): 50.4%; % Control of Tomato Early Blight (Alternaria solani; copper material 400 μM alone): 72.5%; % Control of Tomato Early Blight (Alternaria solani; copper material 800 μM alone): 83.3%
O=C(N/N=C/c1cc(C(F)(F)F)ccc1O)c1ccccc1 [Example 277]	0.6%	86.4%	1.9%	97.5%	–	214 to 217 °C	–	–	% Inhn. Plus copper Observed (Ustilago maydis): 83.5%; inhibition of growth at 1 µg/mL (Ustilago maydis): 1.7%; % Inhn Plus copper Observed (Phytophthora capsici): 88.2%; inhibition of growth at 0.05 µg/mL (Phytophthora capsici): 0%; inhibition at 0.05 µg/mL [5, 10]: 3.6%; inhibition at 0.05 µg/mL [5, 11]: 3.6%; inhibition at 0.05 µg/mL [5, 12]: 88%
O=C(N/N=C/c1cc(Cl)cc(C(F)(F)F)c1O)c1ccccc1 [Example 320]	22.1%	–	–	–	100.0%	225 to 226 °C	17.1%	96.4%	% Inhn. Plus copper Observed (Ustilago maydis): 95.2%; inhibition of growth at 1 µg/mL (Ustilago maydis): 0%; % Inhn Plus copper Observed (Phytophthora capsici): 81.4%; inhibition of growth at 0.05 µg/mL (Phytophthora capsici): 2.9%; inhibition at 0.05 µg/mL [5, 10]: 9.5%; inhibition at 0.05 µg/mL [5, 11]: 9.5%; inhibition at 0.05 µg/mL [5, 12]: 92.1%
C/C(=N\NC(=O)c1ccc(C)cc1)c1cc(Cl)cc(Cl)c1O [Example 279]	19.9%	96.0%	5.1%	98.6%	–	262 to 264 °C	–	–	–
O=C(N/N=C/c1c(O)cccc1Cl)c1ccccc1 [Example 236]	4.7%	88.1%	3.5%	97.0%	–	247 to 248 °C	–	–	–
O=C(N/N=C/c1cc(Cl)cc(Cl)c1O)c1ccccc1 [Compound 16]	–	–	–	–	–	–	–	–	% Control of Cucumber Anthracnose ([6]; hydrazone 10 μM alone): 10%; % Control of Cucumber Anthracnose ([6]; hydrazone 50 μM alone): 33.8%; % Control of Cucumber Anthracnose ([6]; hydrazone 200 μM alone): 63.8%; % Control of Cucumber Anthracnose ([6]; hydrazone 400 μM alone): 70.8%; % Control of Tomato Late Blight (Phytophthora infestans [7]; hydrazone 10 μM alone): 1.5%; % Control of Tomato Late Blight (Phytophthora infestans [7]; hydrazone 50 μM alone): 11.3%; % Control of Tomato Late Blight (Phytophthora infestans [7]; hydrazone 200 μM alone): 21.4%; % Control of Tomato Late Blight (Phytophthora infestans [7]; hydrazone 400 μM alone): 25.7%; % Control of Tomato Early Blight (Alternaria solani; hydrazone 10 μM alone): 3.9%; % Control of Tomato Early Blight (Alternaria solani; hydrazone 50 μM alone): 8%; % Control of Tomato Early Blight (Alternaria solani; hydrazone 200 μM alone): 28.4%; % Control of Tomato Early Blight (Alternaria solani; hydrazone 400 μM alone): 32.4%
O=C(N/N=C/c1cccc(Cl)c1O)c1ccccc1 [Example 231]	10.7%	81.3%	0%	98.5%	–	188 to 189 °C	–	–	–
O=C(N/N=C/c1c(Cl)ccc(Cl)c1O)c1ccc(Cl)cc1 [Example 370]	23.1%	–	–	–	91.0%	271 to 273 °C	3.5%	97.5%	–
COc1cccc(/C(C)=N/NC(=O)c2ccccc2)c1O [Example 299]	18.6%	–	–	–	74.0%	146 to 148 °C	0%	97.9%	–
COc1cccc(/C(C)=N/NC(=O)c2ccc(C)cc2)c1O [Example 302]	22.9%	–	–	–	82.0%	146 to 148 °C	0%	96.4%	–
O=C(N/N=C/c1c(C(F)(F)F)ccc(Cl)c1O)c1ccc(Cl)cc1 [Example 452]	19.3%	–	–	–	100.0%	236 to 238 °C	12.9%	100.0%	–
O=C(N/N=C/c1cc(Br)cc(F)c1O)c1ccc(C(F)(F)F)cc1 [Example 412]	40.4%	–	–	–	100.0%	240 to 241 °C	7.7%	97.8%	–
O=C(N/N=C/c1c(O)cccc1Cl)c1ccc(Cl)cc1 [Example 403]	12.1%	–	–	–	97.0%	273 to 277 °C	0%	97.3%	–
O.O.O.O.O.O=S(=O)([O-])[O-].[Cu+2] [CuSO4•5H2O]	–	–	–	–	–	–	–	–	% Control of Cucumber Anthracnose ([6]; copper material 10 μM alone): 1.4%; % Control of Cucumber Anthracnose ([6]; copper material 50 μM alone): 0.0%; % Control of Cucumber Anthracnose ([6]; copper material 200 μM alone): 61.3%; % Control of Cucumber Anthracnose ([6]; copper material 400 μM alone): 75.7%; % Control of Cucumber Anthracnose ([6]; copper material 800 μM alone): 87.1%; % Control of Tomato Early Blight (Alternaria solani; copper material 10 μM alone): 0.0%; % Control of Tomato Early Blight (Alternaria solani; copper material 50 μM alone): 7.1%; % Control of Tomato Early Blight (Alternaria solani; copper material 200 μM alone): 54.4%; % Control of Tomato Early Blight (Alternaria solani; copper material 400 μM alone): 64.1%; % Control of Tomato Early Blight (Alternaria solani; copper material 800 μM alone): 71.6%
COc1cccc(/C(C)=N/NC(=O)c2ccc(Cl)cc2)c1O [Example 305]	27.1%	–	–	–	61.0%	168 to 170 °C	0.5%	98.3%	–
COc1cccc(/C(C)=N/NC(=O)c2ccccc2Cl)c1O [Example 303]	10.6%	–	–	–	45.0%	233 to 234 °C	0%	98.0%	–
O=C(N/N=C/c1ccc(Cl)c(Cl)c1O)c1ccc(Cl)cc1 [Example 359]	24.1%	–	–	–	92.0%	260 to 262 °C	41.4%	97.3%	–
